From paper PMC4826192 (Oncotarget, 2015)

Tested on: MPNST (malignant peripheral nerve sheath tumor) cells
Experiment: Cell viability assay (Dojindo CCK-8)
Settings: 72 hours

SMILES: Cc1ccc(Nc2nccc(N(C)c3ccc4c(C)n(C)nc4c3)n2)cc1S(N)(=O)=O [pazopanib]
- inhibition of MPNST cell proliferation, pazopanib versus MGCD516: similar
